Values of other authors in patent US20060035317A1, “Effect of treatment with 4,5-dihydroxy-2-cyclopenten-1-one (dhcp) on gene expression and quorum-sensing in bacteria” (priority 2002, published 2006).
Where two headings read alike, the source gives them in different places.

System: E. coli (gene expression)
Details: Wang et al., 2001, cited from earlier work

c1ccc2[nH]ccc2c1 [indole]
Induction of gene by indole (gene cysK): induces | Induction of gene by indole (gene gabT): not
